Source: the supplement of paper PMC10307832

How the values were obtained:
Experiment in all cases: relative viability (nuclei count vs DMSO), 5 days (fraction); higher = more cells survive
AZD5582 + Navitoclax = compound: C[C@@H](C(=O)N[C@@H](C1CCCCC1)C(=O)N2CCC[C@H]2C(=O)N[C@@H]3[C@@H](CC4=CC=CC=C34)OCC#CC#CCO[C@@H]5CC6=CC=CC=C6[C@@H]5NC(=O)[C@@H]7CCCN7C(=O)[C@H](C8CCCCC8)NC(=O)[C@H](C)NC)NC [AZD5582] + CC1(C)CCC(c2ccc(Cl)cc2)=C(CN2CCN(c3ccc(C(=O)NS(=O)(=O)c4ccc(N[C@H](CCN5CCOCC5)CSc5ccccc5)c(S(=O)(=O)C(F)(F)F)c4)cc3)CC2)C1 [Navitoclax] (partner 0.5 µM)
Summary of the method: (§1)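 Cells from lung cancer lines were seeded into 1536-well plates and, one day later, dosed by pin tool. Treatments were either a single drug or a fixed dose of an anchor drug with five library-drug doses (not always all listed) in √10 steps. After 5 days, nuclei were stained in a one-step fixation (final 0.05% Triton X-100, 1% formaldehyde, 1 ug/ml Hoechst) and counted on 4× images, and relative viability is the treated-to-vehicle nuclei ratio, as the median of duplicate plates.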

AZD5582 + Phenformin = compound: C[C@@H](C(=O)N[C@@H](C1CCCCC1)C(=O)N2CCC[C@H]2C(=O)N[C@@H]3[C@@H](CC4=CC=CC=C34)OCC#CC#CCO[C@@H]5CC6=CC=CC=C6[C@@H]5NC(=O)[C@@H]7CCCN7C(=O)[C@H](C8CCCCC8)NC(=O)[C@H](C)NC)NC [AZD5582] + N=C(N)NC(=N)NCCc1ccccc1 [Phenformin] (partner 250 µM)
Summary of the method: as §1

[1] = compound: Cn1nnc2c(C(N)=O)ncn2c1=O [Temozolomide] + CCNC(=O)c1noc(-c2cc(C(C)C)c(O)cc2O)c1-c1ccc(CN2CCOCC2)cc1 [Luminespib] (partner 0.01 µM)
Summary of the method: as §1

Temozolomide + Alpelisib = compound: Cn1nnc2c(C(N)=O)ncn2c1=O [Temozolomide] + Cc1nc(NC(=O)N2CCC[C@H]2C(N)=O)sc1-c1ccnc(C(C)(C)C(F)(F)F)c1 [Alpelisib] (partner 2 µM)
Summary of the method: as §1

Cell Line	relative viability (AZD5582 + Navitoclax; first compound 0.001581 µM)	relative viability (AZD5582 + Navitoclax; first compound 0.005 µM)	relative viability (AZD5582 + Navitoclax; first compound 0.01581 µM)	relative viability (AZD5582 + Navitoclax; first compound 0.05 µM)	relative viability (AZD5582 + Phenformin; first compound 0.001581 µM)	relative viability (AZD5582 + Phenformin; first compound 0.005 µM)	relative viability (AZD5582 + Phenformin; first compound 0.01581 µM)	relative viability (AZD5582 + Phenformin; first compound 0.05 µM)	relative viability ([1]; first compound 0.6325 µM)	relative viability ([1]; first compound 2 µM)	relative viability ([1]; first compound 6.325 µM)	relative viability ([1]; first compound 20 µM)	relative viability (Temozolomide + Alpelisib; first compound 0.6325 µM)	relative viability (Temozolomide + Alpelisib; first compound 2 µM)	relative viability (Temozolomide + Alpelisib; first compound 6.325 µM)	relative viability (Temozolomide + Alpelisib; first compound 20 µM)	relative viability ([1]; first compound 0.2 µM)	relative viability (Temozolomide + Alpelisib; first compound 0.2 µM)
NCI-H2170	0.551	0.624	0.624	0.758	0.38	0.455	0.36	0.409	0.7	0.749	0.478	0.359	0.796	0.849	0.607	0.4	–	–
NCI-H2228	0.904	0.851	0.837	0.555	0.335	0.296	0.321	0.0886	0.162	0.104	0.149	0.137	0.721	0.516	0.813	0.679	0.125	0.77
NCI-H2347	0.747	0.941	0.791	0.748	0.356	0.352	0.38	0.239	0.414	0.608	0.488	0.322	1.1	1.21	1.02	0.989	0.417	1.06
NCI-H2405	0.875	1.21	–	0.866	0.375	0.469	0.327	0.473	0.77	0.817	0.513	0.751	0.819	0.891	0.734	0.738	0.67	0.405
NCI-H3122	1.04	1.03	1.01	0.619	0.362	0.376	0.354	0.19	0.105	0.125	0.0851	0.0839	0.776	0.795	0.73	0.663	0.0795	0.75
PC-3 [JPC-3]	0.752	0.727	0.664	0.486	0.465	0.441	0.47	0.381	0.739	0.776	0.659	0.421	0.982	0.979	1.07	0.396	0.63	1.09
PC-14	1.06	0.967	0.969	1.11	0.556	0.5	0.353	0.511	0.151	0.167	0.244	0.144	0.958	0.95	0.867	0.217	0.143	1.08
RERF-LC-KJ	0.375	–	0.825	0.295	–	–	0.35	0.197	1.19	1.32	1.19	1.27	0.88	0.923	0.861	0.743	1.29	0.638
SK-LU-1	0.462	0.471	0.819	0.351	0.362	0.342	0.508	0.279	0.195	0.189	0.191	0.24	0.976	0.901	0.525	0.394	0.231	1.43
